Test results as given in article PMC13050480, “Preclinical Development of GT-14, a Novel Inhibitor of Gαi2 Protein: Comprehensive Evaluation of Physicochemical, Metabolic Characteristics and Tissue Distribution” (The AAPS journal, 2025).
≈ marks a conversion by molar mass, not a printed value. Where “and” joins values, the source holds several entries; their conditions need not be identical. Equal entries are not always repeated. Entries after “also recorded” stand apart in the source; their conditions may differ. Where two headings read alike, the source gives them in different places.

Columns and labels:
Caco-2 cell monolayers = test: Bi-directional transport study in Caco-2 cell culture model; assay type: in vitro ADME, human
Method: (§1) Caco-2 cells were cultivated as described previously with slight modification ([12]). Briefly, a cell monolayer was prepared by seeding 400,000 cells per insert (Nunc, surface area 4.2 cm^2, 3 μm pore size). Cells were maintained at 37°C under 90% humidity and 5% CO2. Monolayers were used between 19 and 22 days after seeding. The integrity of each monolayer was checked by measuring the transepithelial electrical resistance (Millicell ERS®) before the experiment. The normal TEER values obtained were above 400 Ω·cm^2. Cell monolayers with TEER values less than 400 Ω·cm^2 were not used. Hank’s balanced salt solution (HBSS) (9.8 g/L) was supplemented with NaHCO3 (0.37 g/L), HEPES (5.96 g/L), and glucose (3.5 g/L) for all experiments, after adjusting the pH to the desired value.
(§2) For transport studies, 2.5 mL of GT-14 testing solution (10 μM) in HBSS (pH 7.4) was added to the apical side (A to B transport) or the basolateral side (B to A transport). Five donor samples (200 μL) and five receiver samples (200 μL) were taken at 0, 1, 2, 3, and 4 h followed by the addition of 200 μL of GT-14 test solution to the donor or 200 μL of blank HBSS buffer to the receiver side. Then, 100 μl of an ACN containing internal standard was added to the samples right after sampling. The TEER was measured at the end of the study, and the cell layer was washed carefully using cold blank HBSS 3 times, then cut and sonicated for 30 min in 1.0 mL of blank HBSS for intracellular GT-14 concentration measurement. All samples were centrifuged at 15,000 rpm for 15 min at 4°C for UPLC analysis.
(§3) The apparent permeability coefficient and efflux ratio were obtained according to the following equations: […]

[1] = as above; assay type: in vitro ADME, human; details: human, donor 10 μM
Method: as §1, §2, §3

[2] = design: method as in PMID 38744031; details: rat, cited from earlier work
[3] = pH-dependent solubility in USP buffers; assay type: physicochemical; details: standard USP buffer, aqueous buffer
Method: The pH-dependent stability of GT-14 was assessed in aqueous media of pH ranging from 1 to 10 at room temperature. Standard USP buffers ([11]) were prepared and used for this experiment. Details of buffer solutions are provided in Table I. For the pH solubility profile, GT-14 solid was added in excess amounts in various buffer solutions.

[4] = Lipophilicity (logP), octanol-water shake-flask method; assay type: physicochemical; details: 1-octanol/water, room temperature, triplicate, read-out: experimental logP (octanol-water)
Method: The lipophilicity of GT-14 as indicated by the logP value (octanol–water partition coefficient) was determined by the traditional shake-flask method. Briefly, equal volumes (1 mL) of 1-octanol and water were added to an amber glass bottle and allowed to equilibrate on a shaker for 24 h. Following equilibration, approx. 1 mg of GT-14 (dissolved in Acetonitrile) was added to the two-phase system and allowed to shake continuously at room temperature for 72 h. The two phases were separated using a separating funnel and then centrifuged at 15,000 rpm for 10 min. The concentration of GT-14 in the octanol and water phases was determined by UPLC assay. The experiment was conducted in triplicate.
The logP was calculated by the equation: logP=logOctanolConc./AqueousConc.

[5] = Tissue distribution and urinary excretion after IV dose in rats; assay type: in vivo, Sprague Dawley rats
Method: Each tissue sample was weighed and homogenized in a clean scintillation vial with 0.9% saline (1:1, w/v) using the VWR 200 Homogenizer to make tissue homogenates. Homogenization was carried out on ice at a speed of 5000 rpm for all tissues except the prostate and kidney (10,000 rpm). A five-point calibration curve was prepared for the different tissues in the range of 0.39–25 ng/g. One hundred (100) μL of tissue homogenate samples were mixed with 10 μL of Griseofulvin (1.5 μg/mL, IS). The samples were vortexed for 30 seconds which was followed by protein precipitation with methanol (300 μL), to extract GT-14. The samples were again vortexed for 30 seconds, and then shaken on an automatic shaker for 5 minutes, followed by centrifugation at 14000 rpm for 20 minutes at 4°C. The supernatant was transferred to a sample vial, and a 5 μL aliquot was injected for LC-MS/MS analysis.
Healthy male Sprague Dawley rats (250–300 g) were used to evaluate the plasma pharmacokinetics and tissue distribution of GT-14, with approved animal protocol from the Institutional Animal Care and Use Committee (IACUC) at Texas Southern University. The jugular vein of rats was cannulated in-house the day before intravenous dosing and blood sample collection. GT-14 was administered intravenously as a co-solvent formulation via the jugular vein cannula at a dose of 5 mg/kg. Serial blood samples (100 μL) were collected up to 24 h post-dose. The blood samples were centrifuged at 3000 rpm for 10 min at 4°C, and plasma was collected and stored at −80°C till analysis. Urine samples were also collected at intervals of 0–7 and 7–24 hrs. using metabolic cages and stored at −20°C until analysis. At 24 hr, animals were sacrificed and organs such as prostate, liver, lungs, spleen, brain, kidneys, and heart were collected, following whole body perfusion (transcardiac perfusion) with normal saline to reduce residual blood in tissues. Plasma and tissue homogenate samples were processed (described in section “Analytical Assay”) and analyzed by LC-MS/MS. Tissue concentrations were calculated using the following formula: Tissueconcentrationng/g=CHTS×VHTS/WTS where, CHTS is the concentration (ng/mL) of GT-14 in the homogenized tissue sample; VHTS is the volume of homogenized tissue sample (mL) and WTS is the weight of tissue sample (g).

PC3 cells = details: cited from earlier work
[6] = rat, IV 5 mg/kg, 24 hr post dose, 5 mg/kg

SMILES: C/C(=N\c1ccc(O)cc1)c1cc2ccccc2n1C [GT-14, (E)-4-((1-(1-methyl-1H-indol-2-yl)ethylidene)amino)phenol]
- BCS class (Caco-2 cell monolayers; based on low aqueous solubility and high permeability): BCS class II
- predicted absorption in the GI tract in humans (Caco-2 cell monolayers; predicted from Caco-2 permeability): > 75%
- efflux ratio at 4 h, 10 μM ([1]; Caco-2, pH 7.4): 1.8
- Papp A→B at 4 h, 10 μM ([1]; Caco-2, HBSS pH 7.4, n=3, read-out: apical to basolateral permeability (Pa-b)): 13 ×10⁻⁶ cm/s
- Papp B→A at 4 h, 10 μM ([1]; Caco-2, HBSS pH 7.4, n=3, read-out: basolateral to apical permeability (Pb-a)): 24.2 ×10⁻⁶ cm/s
- maximum plasma concentration (Cmax) ([2]; IV bolus 5 mg/kg, two-compartment model): approximately 200 ng/mL
- terminal plasma elimination half-life ([2]; IV bolus 5 mg/kg, 5 mg/kg): 4.4678 h and 4.468 h
- AUC0–∞ ([2]; IV bolus 5 mg/kg): 23,742 min*ng/mL
- apparent volume of distribution (Vd) ([2]; IV bolus 5 mg/kg): 25,205 ± 2,585 mL/kg
- distribution half-life ([2]; IV bolus 5 mg/kg): 0.267 h
- mean systemic clearance (CL) ([2]; IV bolus 5 mg/kg): 229.9 mL/min/kg
- Plasma half-life in rats ([2]; IV): 4 to 5 h
- terminal plasma elimination half-life ([2]; IV): > 4 h
- solubility thermodynamic at 24 h ([3]; between pH 5 and 7, 24 h): < 10 µg/mL
- solubility thermodynamic at 24 h ([3]; pH 1.2, 24 h): ~80 µg/mL (≈ 303 µM)
- solubility thermodynamic at 24 h ([3]; pH 4.6, 24 h): ~140 µg/mL (≈ 530 µM)
- logP at 72 h [4]: 2.38
- drug cleared from plasma ([5]; 24-h time point post single dose injection): ~99%
- concentration at 24 h ([5]; male, Sprague Dawley, heart, rat, IV 5 mg/kg, 24 hr post dose, read-out: Tissue concentration, heart): 0.13 ± 0.06 ng/g
- concentration at 24 h ([5]; male, Sprague Dawley, kidney, rat, IV 5 mg/kg, 24 hr post dose, read-out: Tissue concentration, kidney): 0.52 ± 0.61 ng/g
- concentration at 24 h ([5]; male, Sprague Dawley, liver, rat, IV 5 mg/kg, 24 hr post dose, read-out: Tissue concentration, liver): 0.13 ± 0.01 ng/g
- concentration at 24 h ([5]; male, Sprague Dawley, lung, rat, IV 5 mg/kg, 24 hr post dose, read-out: Tissue concentration, lung): 0.55 ± 0.15 ng/g
- concentration at 24 h ([5]; male, Sprague Dawley, plasma, rat, IV 5 mg/kg, 24 hr post dose, read-out: Plasma concentration): 9.62 ± 2.82 ng/mL
- concentration at 24 h ([5]; male, Sprague Dawley, prostate, rat, IV 5 mg/kg, 24 hr post dose, read-out: Tissue concentration, prostate): 2.19 ± 1.26 ng/g
- Kp at 24 h ([5]; male, Sprague Dawley, rat, intravenous, 5 mg/kg, all tissues, 24 hr post dose, read-out: tissue-to-plasma ratios): < 1
- GT-14 in brain [5, 6]: not detected; also recorded: detected in all sampled tissues except the brain
- Tissue distribution (rank order, accumulation) [5, 6]: highest concentration of GT-14 in the prostate, followed by the kidneys, lungs, heart, and liver; also recorded: High accumulation in prostate
- GT-14 in urine ([5]; rat, IV 5 mg/kg, urine 0–7 and 7–24 hrs): not detected
- migratory capability of PC3 cells (PC3 cells): significant reduction
- stimulatory effects of docetaxel (cell migration) in PC3 cells (PC3 cells; simultaneous treatment): blocked
